Measurements as given in US11434227B2, “Broad spectrum antibacterial activity of novel bisbenzimidazoles targeting topoisomerase IA and the synergistic composition of bisbenzimidazole with efflux pump inhibitors against pathogenic bacteria” (Jawaharlal Nehru University (JNU), priority 2016, dated 2022).
≈ marks a conversion by molar mass, not a printed value.

Key:
[1] = target: E. coli Topoisomerase IA (EcTopoIA) (Escherichia coli, UniProt P06612); conditions: reference 5; cited from earlier work
E. coli Topoisomerase IA (EcTopoIA), sequence (P06612 whole entry): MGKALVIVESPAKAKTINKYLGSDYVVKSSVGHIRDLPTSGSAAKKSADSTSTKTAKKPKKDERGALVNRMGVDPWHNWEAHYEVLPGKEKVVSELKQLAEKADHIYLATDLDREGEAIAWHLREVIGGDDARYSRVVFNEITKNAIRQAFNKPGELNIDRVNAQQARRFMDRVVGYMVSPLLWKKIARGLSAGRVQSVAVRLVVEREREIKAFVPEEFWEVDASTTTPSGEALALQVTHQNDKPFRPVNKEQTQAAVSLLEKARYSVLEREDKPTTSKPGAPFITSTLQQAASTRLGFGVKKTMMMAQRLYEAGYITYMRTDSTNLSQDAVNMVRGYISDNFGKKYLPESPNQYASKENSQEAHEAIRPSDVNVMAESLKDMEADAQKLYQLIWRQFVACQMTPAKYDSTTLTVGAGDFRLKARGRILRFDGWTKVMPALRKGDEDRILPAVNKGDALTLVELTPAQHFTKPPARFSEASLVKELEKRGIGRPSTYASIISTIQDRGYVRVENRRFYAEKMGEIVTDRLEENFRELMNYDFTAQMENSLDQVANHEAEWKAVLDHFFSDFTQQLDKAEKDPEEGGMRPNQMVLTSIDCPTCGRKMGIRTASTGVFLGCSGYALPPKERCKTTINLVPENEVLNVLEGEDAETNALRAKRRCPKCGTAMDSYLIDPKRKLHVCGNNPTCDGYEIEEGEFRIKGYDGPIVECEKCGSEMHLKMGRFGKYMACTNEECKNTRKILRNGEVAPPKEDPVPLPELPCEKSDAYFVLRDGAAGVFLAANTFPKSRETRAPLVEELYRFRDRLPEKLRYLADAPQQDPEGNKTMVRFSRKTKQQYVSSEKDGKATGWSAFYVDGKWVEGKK

[2] = target: E. coli Topoisomerase IA (Escherichia coli, UniProt P06612); assay: Topoisomerase IA cleavage and religation assay; assay type: biochemical; conditions: 0.12-2 μM DMA, 5′-32P labeled ssDNA
E. coli Topoisomerase IA, sequence (P06612 whole entry): as above
Protocol: Compounds at different concentrations were added to DNA cleavage reaction mixtures (20 μl) containing 50 mM TrisHCl, pH 7.5, 2 mM MgCl2 0.2 mM DTT, 0.5 mM EDTA, 30 μg/ml BSA, 25 μg/ml of pHOT1 having specific site for DNA, 40 units of E. coli Topoisomerase IA and ligands was incubated at 37° C. for 30 min. The reactions was then terminated by adding 1% SDS and 150 μg/m Proteinase K, and incubated further for 1 h at 37° C. The DNA samples was electrophoresed in 1% agarose gel in 0.5×TBE. Ethidium bromide at a finial concentration of 0.5 μg/ml was included in the gel to resolve slowly migrating nicked product (cleavable complex) from the supercoiled DNA molecules.

[3] = tested on: E. coli 360^R; assay: Susceptibility (MIC, PAE, MBC), broth microdilution
Protocol: (§1) MICs were determined by the broth microdilution method according to CLSI methods (Clinical and Laboratory Standards Institute, 2005). Inoculants were incubated at 37° C. on cation adjusted Mueller Hinton (MH) Broth for 18 to 24 h. Compound were dissolved in media to 10 doubling dilutions from 128 to 0.125 μg/mL. All the bacterial strains were grown in 96 well plate with low evaporation lid (Falcon, Becton Dickinson) in presence of derivatives of benzimidazoles at 0.125, 0.25, 0.5, 1, 2, 4, 8, 16, 32, 64, 128, 256 μg/mL concentrations. […] Plates were read by Tecan Micro-plate Reader at 600 nm.

[4] = tested on: E. coli DH5α; assay: as above
Protocol: as §1

[5] = tested on: E. coli 72^R; assay: as above; conditions: Escherichia coli
Protocol: as §1

[6] = tested on: E. coli 555^R; assay: as above
Protocol: as §1

[7] = tested on: E. coli 59^R; assay: as above
Protocol: as §1

[8] = tested on: E. coli 451^R; assay: as above
Protocol: as §1

[9] = tested on: E. coli 401^R; assay: as above
[10] = tested on: E. coli 118^R; assay: as above
[11] = tested on: E. coli 81^R; assay: as above
Protocol: as §1

[12] = tested on: E. coli 151^R; assay: as above
Protocol: as §1

[13] = tested on: Escherichia coli (ATCC 25922); assay: as above
[14] = tested on: E. coli 132^R; assay: as above
Protocol: as §1

[15] = tested on: E. coli 85^R; assay: as above
Protocol: as §1

For `COc1ccc(-c2nc3cc(-c4nc5ccc(N6CCN(C)CC6)cc5[nH]4)ccc3[nH]2)cc1OC` [DMA, 3,4-Dimethoxyphenyl bisbenzimidazole, reference compound], the target specificity [1] is listed as “specific Escherichia coli Topoisomerase IA poison inhibitor over Gyrase, Human Topoisomerase I and Human Topoisomerase II”, the “DNA cleavage product formed by EcTopo1A” value [2] is listed as “increased the DNA cleavage product formed by EcTopo1A” and the PAE ([3]; E. coli 360^R) is listed as 24 h. It also gave an MBC ([3]; Escherichia coli) of 16 µM (≈ 7.5 µg/mL), an MIC ([3]; Escherichia coli) of 3.74 µg/mL (≈ 7.98 µM) and a PAE ([4]; E. coli DH5α) of 20.8 h. For the same compound, the MBC ([4]; Escherichia coli) was 16 µM (≈ 7.5 µg/mL), the MIC ([4]; Escherichia coli) was 3.74 µg/mL (≈ 7.98 µM) and the MBC [5] was 16 µM (≈ 7.5 µg/mL). The MIC [5] was 3.74 µg/mL (≈ 7.98 µM), the PAE ([6]; E. coli 555^R) was 24 h and the MBC ([6]; Escherichia coli) was 64 µM (≈ 30 µg/mL). The MIC ([6]; Escherichia coli) was 15 µg/mL (≈ 32 µM), the PAE ([7]; E. coli 59^R) was 1.6 h and the MBC ([7]; Escherichia coli) was 32 µM (≈ 15 µg/mL). For the same compound, the MIC ([7]; Escherichia coli) was 7.49 µg/mL (≈ 16 µM), the PAE ([8]; E. coli 451^R) was 22 h and the MBC ([8]; Escherichia coli) was 16 µM (≈ 7.5 µg/mL). The MIC ([8]; Escherichia coli) was 3.74 µg/mL (≈ 7.98 µM), the PAE ([9]; E. coli 401^R) was 16 h and the MBC ([9]; Escherichia coli) was 64 µM (≈ 30 µg/mL). It also gave an MIC ([9]; Escherichia coli) of 15 µg/mL (≈ 32 µM), a PAE ([10]; E. coli 118^R) of 24 h and an MBC ([10]; Escherichia coli) of 16 µM (≈ 7.5 µg/mL). It also gave an MIC ([10]; Escherichia coli) of 3.74 µg/mL (≈ 7.98 µM), a PAE ([11]; E. coli 81^R) of 23.6 h and an MBC ([11]; Escherichia coli) of 32 µM (≈ 15 µg/mL). For the same compound, the MIC ([11]; Escherichia coli) was 7.49 µg/mL (≈ 16 µM), the PAE ([12]; E. coli 151^R) was 21.6 h and the MBC ([12]; Escherichia coli) was 32 µM (≈ 15 µg/mL). It also gave an MIC ([12]; Escherichia coli) of 7.49 µg/mL (≈ 16 µM), a PAE ([13]; ATCC 25922) of 22.3 h and an MBC ([13]; Escherichia coli, ATCC25922) of 64 µM (≈ 30 µg/mL). For the same compound, the MIC ([13]; Escherichia coli, ATCC25922) was 15 µg/mL (≈ 32 µM), the PAE ([14]; E. coli 132^R) was 24 h and the MBC ([14]; Escherichia coli) was 32 µM (≈ 15 µg/mL). It also gave an MIC ([14]; Escherichia coli) of 7.49 µg/mL (≈ 16 µM), a PAE ([15]; E. coli 85^R) of 24 h and an MBC ([15]; Escherichia coli) of 16 µM (≈ 7.5 µg/mL). The MIC ([15]; Escherichia coli) was 3.74 µg/mL (≈ 7.98 µM).
